Experimental data from paper PMC10041525, “New Dual Inhibitors of Bacterial Topoisomerases with Broad-Spectrum Antibacterial Activity and In Vivo Efficacy against Vancomycin-Intermediate Staphylococcus aureus” (Journal of Medicinal Chemistry, 2023).
Where two headings read alike, the source gives them in different places.

Columns and labels:
DNA gyrase from E. coli = target: T1, DNA gyrase from E. coli (Escherichia coli, UniProt P0AES6); assay: supercoiling HTS plate assay; assay type: biochemical
T1 construct: purchased Inspiralis
How it was run: (§1)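 E. coli gyrase tested by supercoiling and topo IV by relaxation in high-throughput plate format. IC50 from seven inhibitor concentrations; mean of three independent measurements.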

S. aureus ATCC 29213 = assay: MIC broth microdilution (CLSI); assay type: cell-based
How it was run: (§2)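 Cation-adjusted Mueller Hinton broth 2 microdilution, 5 × 10^4 cells per well in 100 μL, three parallel replicates, plates bagged to limit evaporation; growth read as OD600 after incubation.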

[1] = tested on: Enterococcus faecalis ATCC 29212; assay: MIC broth microdilution (CLSI); assay type: cell-based, E. faecalis; conditions: Enterococcus faecalis, ATCC29212
E. coli ATCC 25922 = assay: MIC broth microdilution (CLSI); assay type: cell-based; conditions: Escherichia coli, ATCC25922
How it was run: (§3)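 Serial twofold broth microdilution per CLSI in cation-adjusted Mueller Hinton broth 2, with 5 × 10^4 bacterial cells per well in 100 μL. Plates were shaken at 150 rpm, 37 °C, for 18 h, then read at OD600. MIC was the concentration where the mean OD600 increment of triplicates stayed below 1.5-fold background.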

E. faecium ATCC 700221 = assay: MIC broth microdilution (CLSI); assay type: cell-based
[2] = tested on: Enterobacter cloacae spp. cloacae ATCC 13047; assay: MIC broth microdilution (CLSI); assay type: cell-based; conditions: Enterobacter cloacae, ATCC13047
How it was run: as §3

K. pneumoniae ATCC 10031 = assay: MIC broth microdilution (CLSI); assay type: cell-based; conditions: Klebsiella pneumoniae, ATCC10031
How it was run: as §3

P. aeruginosa ATCC 27853 = assay: MIC broth microdilution (CLSI); assay type: cell-based; conditions: Pseudomonas aeruginosa, ATCC27853
How it was run: as §3

[3] = tested on: S. aureus (MRSA) ATCC 43300; assay: MIC broth microdilution (CLSI); assay type: cell-based
How it was run: as §3

[4] = tested on: S. aureus (VISA) ATCC 700699; assay: MIC broth microdilution (CLSI); assay type: cell-based
How it was run: as §3

topo IV from E. coli = target: T2, topo IV from E. coli (Escherichia coli, UniProt P20083); assay: relaxation HTS plate assay; assay type: biochemical
T2 construct: purchased Inspiralis
How it was run: as §1

A. baumannii ATCC 17978 = assay: MIC broth microdilution (CLSI); assay type: cell-based; conditions: Acinetobacter baumannii, ATCC17978
How it was run: as §2

[5] = Staphylococcus aureus, ATCC29213
[6] = Enterococcus faecium, ATCC700221
[7] = Staphylococcus aureus, read-out: MIC [µg/mL](S. aureus MRSA ATCC4330)
[8] = read-out: MIC [µg/mL] (A. baumannii ATCC 17978)
[9] = Staphylococcus aureus, ATCC29213; read-out: MIC
[10] = Staphylococcus aureus, ATCC29213; read-out: MIC [µg/mL](S. aureus ATCC 29213)
[11] = Enterococcus faecium, ATCC700221, read-out: MIC
[12] = Staphylococcus aureus; read-out: MIC
[13] = Staphylococcus aureus; read-out: MIC [µg/mL](S. aureus MRSA ATCC4330)
[14] = Staphylococcus aureus, read-out: MIC

T2 sequence (P0AFI2 whole entry): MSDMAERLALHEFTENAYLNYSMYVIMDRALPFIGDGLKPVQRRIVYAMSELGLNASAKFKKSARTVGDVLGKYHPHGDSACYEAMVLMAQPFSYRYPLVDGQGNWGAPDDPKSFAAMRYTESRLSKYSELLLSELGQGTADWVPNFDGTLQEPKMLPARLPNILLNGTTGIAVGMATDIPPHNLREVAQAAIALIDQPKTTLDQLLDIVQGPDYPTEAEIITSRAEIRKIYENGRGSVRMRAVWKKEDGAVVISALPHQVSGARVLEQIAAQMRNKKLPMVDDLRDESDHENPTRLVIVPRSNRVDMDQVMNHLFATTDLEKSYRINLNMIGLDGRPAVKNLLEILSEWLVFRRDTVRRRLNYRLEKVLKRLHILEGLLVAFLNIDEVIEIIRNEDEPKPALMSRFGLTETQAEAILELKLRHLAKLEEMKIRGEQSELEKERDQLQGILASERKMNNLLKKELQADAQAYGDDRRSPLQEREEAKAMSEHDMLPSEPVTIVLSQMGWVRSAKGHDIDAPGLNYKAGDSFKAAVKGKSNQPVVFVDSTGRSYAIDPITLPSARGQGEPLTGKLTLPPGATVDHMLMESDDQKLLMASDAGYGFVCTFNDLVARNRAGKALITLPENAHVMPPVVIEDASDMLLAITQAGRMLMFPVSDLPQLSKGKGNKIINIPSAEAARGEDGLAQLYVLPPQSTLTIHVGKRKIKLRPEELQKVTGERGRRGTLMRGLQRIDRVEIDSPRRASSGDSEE
T2 sequence (P20083 whole entry): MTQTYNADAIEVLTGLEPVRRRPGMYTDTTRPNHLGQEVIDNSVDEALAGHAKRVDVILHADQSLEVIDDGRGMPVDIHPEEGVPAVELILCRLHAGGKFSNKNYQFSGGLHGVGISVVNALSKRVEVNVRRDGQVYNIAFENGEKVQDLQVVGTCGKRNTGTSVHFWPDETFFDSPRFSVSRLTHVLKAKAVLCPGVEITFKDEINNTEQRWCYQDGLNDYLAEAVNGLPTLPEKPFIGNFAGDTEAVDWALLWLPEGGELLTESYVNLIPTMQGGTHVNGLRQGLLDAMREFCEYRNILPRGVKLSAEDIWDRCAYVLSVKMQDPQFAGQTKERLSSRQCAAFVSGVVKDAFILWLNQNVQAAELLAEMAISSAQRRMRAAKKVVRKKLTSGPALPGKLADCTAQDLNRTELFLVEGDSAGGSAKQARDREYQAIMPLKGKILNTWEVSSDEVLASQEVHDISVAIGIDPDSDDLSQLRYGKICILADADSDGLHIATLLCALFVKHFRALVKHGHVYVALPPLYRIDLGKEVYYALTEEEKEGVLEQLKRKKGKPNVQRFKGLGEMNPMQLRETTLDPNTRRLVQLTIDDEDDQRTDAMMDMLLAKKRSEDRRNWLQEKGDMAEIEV

SMILES	IC50 (DNA gyrase from E. coli; read-out: IC50)	IC50 (topo IV from E. coli; read-out: IC50)	MIC (A. baumannii ATCC 17978; read-out: MIC)	MIC (A. baumannii ATCC 17978; [8])	MIC (S. aureus ATCC 29213; [9])	MIC (S. aureus ATCC 29213; [10])	MIC ([1]; read-out: MIC)	MIC (E. coli ATCC 25922; read-out: MIC)	MIC (E. faecium ATCC 700221; [11])	MIC ([2]; read-out: MIC)	MIC (K. pneumoniae ATCC 10031; read-out: MIC)	MIC (P. aeruginosa ATCC 27853; read-out: MIC)	MIC [3, 12]	MIC [3, 13]	MIC [4, 14]	IC50 (DNA gyrase from E. coli; IC50 [nM] E. coli DNA gyrase)	further results
Cc1[nH]c(C(=O)Nc2nc3c(N4CCOCC4)cc(C(=O)O)cc3s2)c(Cl)c1Cl [7a, 2-(3,4-Dichloro-5-methyl-1H-pyrrole-2-carboxamido)-4-morpholinobenzo[d]thiazole-6-carboxylic Acid]	< 10 nM	–	–	–	–	–	–	–	–	–	–	–	–	–	–	–	MIC (S. aureus ATCC 29213; [5]): 0.25 µg/mL; MIC (S. aureus ATCC 29213; Staphylococcus aureus, ATCC29213, read-out: MIC [µg/mL](S. aureus ATCC 29213)): 0.25 µg/mL; MIC [1]: < 0.0312 µg/mL; MIC (E. coli ATCC 25922): 8 µg/mL; MIC (E. faecium ATCC 700221; [6]): < 0.0312 µg/mL; MIC [2]: > 64 µg/mL; MIC (K. pneumoniae ATCC 10031): 0.5 µg/mL; MIC (P. aeruginosa ATCC 27853): 16 µg/mL; MIC ([3]; Staphylococcus aureus): 0.0625 µg/mL; MIC [3, 7]: 0.25 µg/mL; MIC [4]: <0.03125 µg/mL; MIC ([4]; Staphylococcus aureus): < 0.0312 µg/mL
Cc1[nH]c(C(=O)Nc2nc3c(N4CCOCC4C)cc(C(=O)O)cc3s2)c(Cl)c1Cl (stereo not shown) [7b, 2-(3,4-Dichloro-5-methyl-1H-pyrrole-2-carboxamido)-4-(3-methylmorpholino)benzo[d]thiazole-6-carboxylic Acid]	< 10 nM	78 ± 4 nM	4 µg/mL	4 µg/mL	0.125 µg/mL	0.125 µg/mL	< 0.0312 µg/mL	8 µg/mL	< 0.0312 µg/mL	32 µg/mL	2 µg/mL	8 µg/mL	< 0.0312 µg/mL	< 0.0312 µg/mL	< 0.0312 µg/mL	–	–
Cc1[nH]c(C(=O)Nc2nc3c(N4CCOC[C@H]4C)cc(C(=O)O)cc3s2)c(Cl)c1Cl [7c, (R)-2-(3,4-Dichloro-5-methyl-1H-pyrrole-2-carboxamido)-4-(3-methylmorpholino)benzo[d]thiazole-6-carboxylic Acid]	17 ± 8 nM	60 ± 36 nM	8 µg/mL	8 µg/mL	0.0625 µg/mL	0.0625 µg/mL	< 0.0312 µg/mL	8 µg/mL	< 0.0312 µg/mL	> 64 µg/mL	1 µg/mL	8 µg/mL	0.125 µg/mL	0.125 µg/mL	0.0625 µg/mL	30 ± 9 nM	–
Cc1[nH]c(C(=O)Nc2nc3c(N4CCOC[C@@H]4C)cc(C(=O)O)cc3s2)c(Cl)c1Cl [7d, (S)-2-(3,4-Dichloro-5-methyl-1H-pyrrole-2-carboxamido)-4-(3-methylmorpholino)benzo[d]thiazole-6-carboxylic Acid]	–	95 ± 4 nM	8 µg/mL	8 µg/mL	0.125 µg/mL	0.125 µg/mL	< 0.0312 µg/mL	8 µg/mL	< 0.0312 µg/mL	> 64 µg/mL	2 µg/mL	8 µg/mL	0.125 µg/mL	0.125 µg/mL	0.0625 µg/mL	23 nM	IC50 (DNA gyrase from E. coli; IC50): 18 ± 7 nM
Cc1[nH]c(C(=O)Nc2nc3c(N4CCOC(C)C4)cc(C(=O)O)cc3s2)c(Cl)c1Cl (stereo not shown) [7e, 2-(3,4-Dichloro-5-methyl-1H-pyrrole-2-carboxamido)-4-(2-methylmorpholino)benzo[d]thiazole-6-carboxylic Acid]	< 10 nM	91 ± 3 nM	8 µg/mL	8 µg/mL	0.0625 µg/mL	0.0625 µg/mL	< 0.0312 µg/mL	8 µg/mL	< 0.0312 µg/mL	> 64 µg/mL	2 µg/mL	16 µg/mL	0.0625 µg/mL	0.0625 µg/mL	< 0.0312 µg/mL	–	–
Cc1[nH]c(C(=O)Nc2nc3c(N4CC(C)OC(C)C4)cc(C(=O)O)cc3s2)c(Cl)c1Cl (stereo not shown) [7f, 2-(3,4-Dichloro-5-methyl-1H-pyrrole-2-carboxamido)-4-(2,6-dimethylmorpholino)benzo[d]thiazole-6-carboxylic Acid]	< 10 nM	82 ± 29 nM	1 µg/mL	1 µg/mL	< 0.0312 µg/mL	< 0.0312 µg/mL	< 0.0312 µg/mL	8 µg/mL	< 0.0312 µg/mL	> 64 µg/mL	8 µg/mL	8 µg/mL	< 0.0312 µg/mL	< 0.0312 µg/mL	< 0.0312 µg/mL	–	–
Cc1[nH]c(C(=O)Nc2nc3c(N4C[C@H]5CC[C@@H](C4)O5)cc(C(=O)O)cc3s2)c(Cl)c1Cl [7g, 4-((1R,5S)-8-Oxa-3-azabicyclo[3.2.1]octan-3-yl)-2-(3,4-dichloro-5-methyl-1H-pyrrole-2-carboxamido)benzo[d]thiazole-6-carboxylic Acid]	< 10 nM	16 ± 8 nM	1 µg/mL	1 µg/mL	< 0.0312 µg/mL	< 0.0312 µg/mL	< 0.0312 µg/mL	2 µg/mL	< 0.0312 µg/mL	16 µg/mL	2 µg/mL	2 µg/mL	< 0.0312 µg/mL	< 0.0312 µg/mL	< 0.0312 µg/mL	–	–
Cc1[nH]c(C(=O)Nc2nc3c(N4[C@@H]5CC[C@H]4COC5)cc(C(=O)O)cc3s2)c(Cl)c1Cl [7h, 4-((1R,5S)-3-Oxa-8-azabicyclo[3.2.1]octan-8-yl)-2-(3,4-dichloro-5-methyl-1H-pyrrole-2-carboxamido)benzo[d]thiazole-6-carboxylic Acid]	13 ± 1 nM	–	2 µg/mL	2 µg/mL	< 0.0312 µg/mL	< 0.0312 µg/mL	< 0.0312 µg/mL	4 µg/mL	< 0.0312 µg/mL	16 µg/mL	2 µg/mL	4 µg/mL	< 0.0312 µg/mL	< 0.0312 µg/mL	0.0625 µg/mL	16 ± 6 nM	–
Cc1[nH]c(C(=O)Nc2nc3c(N4CCOC(C(F)(F)F)C4)cc(C(=O)O)cc3s2)c(Cl)c1Cl (stereo not shown) [7i, 2-(3,4-Dichloro-5-methyl-1H-pyrrole-2-carboxamido)-4-(2-(trifluoromethyl)morpholino)benzo[d]thiazole-6-carboxylic Acid]	< 10 nM	–	–	–	–	–	–	–	–	–	–	–	–	–	–	–	IC50 (topo IV from E. coli; IC50): 63 ± 1 nM; MIC (A. baumannii ATCC 17978): 4 µg/mL; MIC (S. aureus ATCC 29213; [5]): < 0.0312 µg/mL; MIC [1]: < 0.0312 µg/mL; MIC (E. coli ATCC 25922): 16 µg/mL; MIC (E. faecium ATCC 700221; [6]): < 0.0312 µg/mL; MIC [2]: > 64 µg/mL; MIC (K. pneumoniae ATCC 10031): 4 µg/mL; MIC (P. aeruginosa ATCC 27853): 4 µg/mL; MIC ([3]; Staphylococcus aureus): < 0.0312 µg/mL; MIC [3, 7]: < 0.0312 µg/mL; MIC ([4]; Staphylococcus aureus): < 0.0312 µg/mL
COCC1CCCN1c1cc(C(=O)O)cc2sc(NC(=O)c3[nH]c(C)c(Cl)c3Cl)nc12 (stereo not shown) [7n, 2-(3,4-Dichloro-5-methyl-1H-pyrrole-2-carboxamido)-4-(2-(methoxymethyl)pyrrolidin-1-yl)benzo[d]thiazole-6-carboxylic Acid]	–	210 ± 7 nM	8 µg/mL	8 µg/mL	0.0625 µg/mL	0.0625 µg/mL	< 0.0312 µg/mL	8 µg/mL	< 0.0312 µg/mL	> 64 µg/mL	8 µg/mL	8 µg/mL	0.0625 µg/mL	0.0625 µg/mL	0.0625 µg/mL	14 ± 6 nM	–
COC[C@@H]1CCCN1c1cc(C(=O)O)cc2sc(NC(=O)c3[nH]c(C)c(Cl)c3Cl)nc12 [7o, (S)-2-(3,4-Dichloro-5-methyl-1H-pyrrole-2-carboxamido)-4-(2-(methoxymethyl)pyrrolidin-1-yl)benzo[d]thiazole-6-carboxylic Acid]	–	280 ± 14 nM	16 µg/mL	16 µg/mL	0.0625 µg/mL	0.0625 µg/mL	< 0.0312 µg/mL	16 µg/mL	< 0.0312 µg/mL	> 64 µg/mL	16 µg/mL	16 µg/mL	0.0625 µg/mL	0.0625 µg/mL	0.0625 µg/mL	25 nM	–
Cc1[nH]c(C(=O)Nc2nc3c(N4CCOCC4)cc(C(=O)O)cc3s2)cc1F [16b, 2-(4-Fluoro-5-methyl-1H-pyrrole-2-carboxamido)-4-morpholinobenzo[d]thiazole-6-carboxylic Acid]	–	120 nM	–	> 64 µg/mL	64 µg/mL	64 µg/mL	16 µg/mL	> 64 µg/mL	2 µg/mL	–	–	–	32 µg/mL	32 µg/mL	8 µg/mL	31 ± 6 nM	MIC (E. faecium ATCC 700221): 2 µg/mL
